This note sets out measurements from patent publication US20210290784A1, “POSITRON EMISSION TOMOGRAPHY (PET) RADIOTRACERS FOR IMAGING MACROPHAGE COLONY-STIMULATING FACTOR 1 RECEPTOR (CSF1R) IN NEUROINFLAMMATION” (The Johns Hopkins University, priority 2018, published 2021).

Each structure is given as a SMILES string. “Also recorded” adds a separate entry of the source.

For data set [1], the target named is T1, CSF1R (Mus musculus, UniProt P09581).
T1 sequence (P09581 20-977): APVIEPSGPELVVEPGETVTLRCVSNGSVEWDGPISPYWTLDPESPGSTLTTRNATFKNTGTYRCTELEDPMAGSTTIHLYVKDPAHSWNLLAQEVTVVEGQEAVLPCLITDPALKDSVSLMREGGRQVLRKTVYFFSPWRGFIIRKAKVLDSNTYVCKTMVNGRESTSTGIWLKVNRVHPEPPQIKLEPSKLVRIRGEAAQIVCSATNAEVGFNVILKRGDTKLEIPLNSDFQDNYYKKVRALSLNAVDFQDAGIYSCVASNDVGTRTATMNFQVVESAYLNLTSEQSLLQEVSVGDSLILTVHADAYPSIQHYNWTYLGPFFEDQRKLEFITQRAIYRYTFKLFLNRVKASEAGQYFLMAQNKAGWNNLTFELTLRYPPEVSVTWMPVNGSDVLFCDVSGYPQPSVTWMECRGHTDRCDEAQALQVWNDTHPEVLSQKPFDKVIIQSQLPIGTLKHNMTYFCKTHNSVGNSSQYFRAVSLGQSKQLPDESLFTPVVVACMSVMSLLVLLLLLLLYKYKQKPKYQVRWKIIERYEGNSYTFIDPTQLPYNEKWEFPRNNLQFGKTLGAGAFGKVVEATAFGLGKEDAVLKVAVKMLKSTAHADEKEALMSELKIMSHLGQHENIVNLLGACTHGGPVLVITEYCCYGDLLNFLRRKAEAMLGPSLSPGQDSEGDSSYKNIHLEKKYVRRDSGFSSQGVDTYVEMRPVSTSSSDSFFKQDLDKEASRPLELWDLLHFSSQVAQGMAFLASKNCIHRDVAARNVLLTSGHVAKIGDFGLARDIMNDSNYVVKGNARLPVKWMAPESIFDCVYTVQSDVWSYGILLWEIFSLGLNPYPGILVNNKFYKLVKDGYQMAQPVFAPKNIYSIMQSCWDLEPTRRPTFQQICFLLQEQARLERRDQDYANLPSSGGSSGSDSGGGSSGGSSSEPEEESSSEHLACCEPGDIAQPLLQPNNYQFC
The data set is described as follows: Brain uptake in transgenic mouse model of AD. The data set is classed as in vivo, mice. More on the design: from tissue; host or cells: brain of living CD-1, C57BL/6J, transgenic APP (AD model), EAE and CSF1R KO mice. To be noted: all brain regions, 45 min. The source says:
Mouse model of Alzheimer's disease-related amyloidosis overexpressed Amyloid Precursor Protein (APP) with Swedish and Indiana mutations was used. The transgenic APP had tetracycline transactivator (tTa)-sensitive promoter that was activated by over-expressing tTa driven by CaMKII promoter (5). Due to such combination of transgenes, the overexpression of transgenic APP was observed only in principal neurons of the forebrain. […] The Alzheimer's male mice (AD) and their sex-matched control littermates were 16 months of age at the time of the study. […] The outcome variables were calculated as % SUV.

Data set [2] in a line: Mouse plasma and brain radiometabolite analysis. The data set is classed as in vivo, mice. On the procedure:
The animals were injected IV with 37 MBq (1 mCi) [^11C]CPPC [specific radioactivity=673 GBq/μmol (18.2 Ci/μmol)] and sacrificed by cervical dislocation at 10 min (3 animals) and 30 min (3 animals) after the radiotracer injection. […] Radiometabolites of [^11C]CPPC in the mouse plasma and brain were analyzed using a general HPLC method described above for baboon. Before the HPLC analysis the mouse brain was homogenized in 2 mL of mixture 50% acetonitrile: 50% phosphate buffer (Et3N, H3PO4, pH 7.2). The homogenates were centrifuged (14000 g for 5 min) and supernatants filtered using 0.2 micron filter and filtrate was analyzed by radio-HPLC with phenomenex Gemini C18, 10μ, 4.6×250 mm and 2 mL/min isocratic elution and 50% acetonitrile-50% aqueous triethylamine, c=0.06 M and pH=7.2 as mobile phase. […] The radiometabolites poorly penetrate the blood-brain barrier and their presence in the brain is low (Table 4)

Data set [3] addresses T1, CSF1R. Kind of data set: Blocking study with unlabeled CPPC in control mice. The data set is classed as in vivo. The arrangement: from tissue; host or cells: brain of living CD-1, C57BL/6J, transgenic APP (AD model), EAE and CSF1R KO mice. On the procedure:
Mice (male CD1 or C57BL/6J) were killed by cervical dislocation at 45 min following i.v. injection of [^11C]CPPC. The blockers, CPPC (0.3, 0.6, 1.2, 3.0, 10, and 20 mg/kg), or CSF1R inhibitor, compound 8 (Illig C R, et al. (2008)) (2 mg/kg), were given i.p., 5 min before [^11C]CPPC, whereas baseline animals received vehicle. […] Regional brain uptake of [^11C]CPPC at baseline was compared with that with blocking.
Animals were sacrificed by cervical dislocation at 45 min following injection of 5.1 MBq (0.14 mCi) [^11C]CPPC [specific radioactivity=511 GBq/μmol (13.8 Ci/μmol)] in 0.2 mL saline into a lateral tail vein. […] The percentage of standardized uptake value (% SUV) was calculated.
Animals were sacrificed by cervical dislocation at 45 min following injection of 5.0 MBq (0.135 mCi) [^11C]CPPC [specific radioactivity=390 GBq/μmol (10.5 Ci/μmol)] in 0.2 mL saline into a lateral tail vein. […] The outcome variables for the cortex are presented without blood correction as % SUV (FIG. 11A) and with blood correction as SUVR (FIG. 11B).

Take `[11CH3]N1CCN(c2ccc(NC(=O)c3ccc(C#N)o3)c(N3CCCCC3)c2)CC1` [[^11C]CPPC, 5-cyano-N-(4-(4-[^11C]methylpiperazin-1-yl)-2-(piperidin-1-yl)phenyl)furan-2-carboxamide]: the “uptake in brain regions of AD mice vs control” value on CSF1R [1] is recorded as “significantly greater; also recorded: significantly higher”. For the same compound, the “Brain Parent [^11C]CPPC, %” value is reported as 96.6 ± 0.1% in data set [2] (10 min) and 95.1 ± 1.6% in data set [2] (30 min). In addition, the “Plasma Parent [^11C]CPPC, %” value in data set [2] (10 min) turned out to be 70.2 ± 2.2%; in data set [2] (30 min) it was 39.7 ± 1.3%. For the same compound, the “blood corrected cortex SUVR, blocking vs baseline” value on CSF1R [3] (CD1 mice, unlabeled CPPC 0.6 and 3 mg/kg, P=0.05, n=3) is “significantly lower”. Also, the “cortex % SUV, blocking vs baseline, without blood correction” value on CSF1R [3] (CD1 mice, unlabeled CPPC 0.6 and 3 mg/kg, P>0.05, n=3) was “No significant difference”. The “reduction of radioactivity (SUVR, blood-corrected) with blocking” value at CSF1R [3] (control CD1 mice, cortex, unlabeled CPPC 0.6 and 3 mg/kg IP, 45 min) is listed as 20%. In addition, the “% SUV brain uptake with blocking, low doses of unlabeled CPPC” value on CSF1R [3] (control CD1 mice, dose escalation, 0.6-3 mg/kg, 45 min, no blood correction) is “no reduction; also recorded: failed to show a significant reduction; also recorded: insignificant blockade”. For the same compound, the “% SUV brain uptake with blocking, high doses of unlabeled CPPC” value at CSF1R [3] (control CD1 mice, dose escalation, 10-20 mg/kg, 45 min, no blood correction) was “gradual trend toward increased uptake; also recorded: insignificant gradual increase of uptake”.
